From patent US7211424B1, “Mammalian Subtilisin/kexin isozyme SKI-1: a proprotein convertase with a unique cleavage specificity” (Institut de Recherches Cliniques de Montreal, priority 1999, dated 2007)
Where two headings read alike, the source gives them in different places.

What was measured:
SKI-1 [1] = target: T1, SKI-1 (Homo sapiens, UniProt Q14703); test: Example 6: synthetic peptides examined as possible substrates of recombinant SKI-1; assay type: biochemical; design: made in house
T1 sequence (Q14703 187-1052): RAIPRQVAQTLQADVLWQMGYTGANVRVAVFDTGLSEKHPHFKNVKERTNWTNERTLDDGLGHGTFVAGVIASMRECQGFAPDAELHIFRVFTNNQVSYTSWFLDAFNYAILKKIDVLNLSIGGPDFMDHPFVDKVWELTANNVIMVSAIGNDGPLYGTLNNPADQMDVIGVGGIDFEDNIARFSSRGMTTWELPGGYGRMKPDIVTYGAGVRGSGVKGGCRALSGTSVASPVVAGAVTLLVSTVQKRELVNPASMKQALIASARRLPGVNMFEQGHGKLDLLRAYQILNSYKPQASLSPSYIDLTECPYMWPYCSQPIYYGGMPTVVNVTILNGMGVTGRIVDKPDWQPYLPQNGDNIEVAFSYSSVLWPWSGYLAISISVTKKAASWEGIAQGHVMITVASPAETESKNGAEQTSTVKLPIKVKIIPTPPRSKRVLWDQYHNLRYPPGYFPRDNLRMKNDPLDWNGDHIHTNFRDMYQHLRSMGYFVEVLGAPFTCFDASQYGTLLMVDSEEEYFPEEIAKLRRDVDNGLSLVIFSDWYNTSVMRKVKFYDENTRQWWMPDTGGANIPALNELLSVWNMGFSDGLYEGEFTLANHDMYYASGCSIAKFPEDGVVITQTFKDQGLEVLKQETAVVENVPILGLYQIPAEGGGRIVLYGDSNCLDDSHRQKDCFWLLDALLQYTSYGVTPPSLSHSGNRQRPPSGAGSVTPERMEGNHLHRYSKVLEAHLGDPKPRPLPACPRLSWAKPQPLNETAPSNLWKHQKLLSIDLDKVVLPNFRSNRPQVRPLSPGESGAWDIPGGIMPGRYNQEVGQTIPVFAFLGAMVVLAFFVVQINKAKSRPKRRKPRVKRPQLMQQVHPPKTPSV
Source text: A large number of synthetic peptides based on potential cleavage sites in the hSKI-1 prodomain, proBDNF and the loop region of SREBP-2 were synthesized.
These peptides were examined as possible substrates of SKI-1.

SKI-1 [2] = target: T1, SKI-1; conditions: previously established (ref. 10); cited from earlier work
SKI-1 [3] = target: T2, SKI-1 (Homo sapiens, UniProt Q14703); assay type: biochemical
T2 sequence (Q14703 187-998 limits assumed): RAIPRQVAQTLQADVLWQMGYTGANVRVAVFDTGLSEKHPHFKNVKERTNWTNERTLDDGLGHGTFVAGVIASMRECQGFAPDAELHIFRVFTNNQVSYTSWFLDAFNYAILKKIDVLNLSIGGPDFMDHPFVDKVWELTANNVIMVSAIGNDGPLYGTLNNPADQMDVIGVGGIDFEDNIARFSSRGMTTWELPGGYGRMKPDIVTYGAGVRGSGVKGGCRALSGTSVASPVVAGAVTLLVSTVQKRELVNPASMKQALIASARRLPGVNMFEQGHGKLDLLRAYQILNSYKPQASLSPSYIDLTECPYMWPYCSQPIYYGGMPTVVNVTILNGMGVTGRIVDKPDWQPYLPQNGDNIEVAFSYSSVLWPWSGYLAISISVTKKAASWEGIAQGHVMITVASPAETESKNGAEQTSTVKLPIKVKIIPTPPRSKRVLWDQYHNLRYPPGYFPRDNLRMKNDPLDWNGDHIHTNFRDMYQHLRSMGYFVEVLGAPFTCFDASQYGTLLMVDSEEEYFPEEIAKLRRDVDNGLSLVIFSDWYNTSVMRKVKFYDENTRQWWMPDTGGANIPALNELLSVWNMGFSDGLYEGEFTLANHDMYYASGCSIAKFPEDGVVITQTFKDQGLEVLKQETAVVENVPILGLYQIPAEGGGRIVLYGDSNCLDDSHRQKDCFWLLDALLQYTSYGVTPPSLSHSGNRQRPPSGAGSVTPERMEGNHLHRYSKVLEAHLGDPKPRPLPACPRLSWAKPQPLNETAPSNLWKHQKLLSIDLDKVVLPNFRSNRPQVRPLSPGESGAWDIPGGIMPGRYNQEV

BTMD-hSKI-1 = target: T3, BTMD-hSKI-1 (Homo sapiens, UniProt Q14703); assay type: biochemical
T3 sequence (Q14703 187-997 limits assumed): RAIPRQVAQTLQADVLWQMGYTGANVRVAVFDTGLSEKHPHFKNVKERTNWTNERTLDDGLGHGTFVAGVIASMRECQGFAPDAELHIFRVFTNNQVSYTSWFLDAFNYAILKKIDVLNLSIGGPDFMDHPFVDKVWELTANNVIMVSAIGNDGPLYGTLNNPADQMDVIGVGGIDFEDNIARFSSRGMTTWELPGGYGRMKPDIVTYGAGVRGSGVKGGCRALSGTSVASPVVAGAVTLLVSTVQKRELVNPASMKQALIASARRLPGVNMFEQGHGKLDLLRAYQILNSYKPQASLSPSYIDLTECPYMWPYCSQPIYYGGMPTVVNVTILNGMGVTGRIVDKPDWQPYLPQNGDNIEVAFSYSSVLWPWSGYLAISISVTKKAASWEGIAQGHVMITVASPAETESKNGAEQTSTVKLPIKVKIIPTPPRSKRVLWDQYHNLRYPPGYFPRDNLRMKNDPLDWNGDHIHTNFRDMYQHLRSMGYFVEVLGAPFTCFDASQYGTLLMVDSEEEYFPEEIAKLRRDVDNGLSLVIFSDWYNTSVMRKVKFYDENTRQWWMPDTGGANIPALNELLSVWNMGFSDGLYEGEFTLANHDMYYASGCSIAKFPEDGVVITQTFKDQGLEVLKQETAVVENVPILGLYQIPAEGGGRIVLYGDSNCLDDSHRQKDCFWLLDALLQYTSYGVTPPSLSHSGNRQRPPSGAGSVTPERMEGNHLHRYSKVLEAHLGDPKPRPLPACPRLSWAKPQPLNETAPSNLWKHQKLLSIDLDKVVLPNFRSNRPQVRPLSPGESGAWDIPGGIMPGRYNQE

[4] = substrate: CC(C)C[C@H](NC(=O)[C@@H](NC(=O)[C@H](CO)NC(=O)[C@H](CCCNC(=N)N)NC(=O)CNC(=O)[C@H](CO)NC(=O)CNC(=O)[C@H](CO)NC(=O)[C@H](Cc1c[nH]cn1)NC(=O)[C@@H]1CCCN1C(=O)[C@H](Cc1c[nH]cn1)NC(=O)[C@H](CCC(N)=O)NC(=O)[C@H](CC(=O)O)NC(=O)[C@H](CO)NC(=O)[C@H](CC(=O)O)NC(=O)[C@H](Cc1c[nH]cn1)NC(=O)[C@H](C)NC(=O)CNC(=O)CN)C(C)C)C(=O)N[C@@H](CO)C(=O)N[C@@H](Cc1ccccc1)C(=O)N[C@@H](CCC(=O)O)C(=O)N[C@@H](CO)C(=O)NCC(=O)N[C@@H](CO)C(=O)NCC(=O)NCC(=O)O; test: purified protein, by the assay type; conditions: other: BTMD-SKI-1 medium, times giving 5–30% substrate hydrolysis; averages of duplicate assays; pH 6.5; 37.0 °C
[5] = substrate: CC(C)C[C@H](NC(=O)[C@H](C)NC(=O)[C@H](CCCNC(=N)N)NC(=O)[C@H](CC(C)C)NC(=O)[C@H](CC(C)C)NC(=O)[C@H](CCCNC(=N)N)NC(=O)[C@H](CCCNC(=N)N)NC(=O)[C@@H](N)CO)C(=O)N[C@@H](CCC(=O)O)C(N)=O; test: purified protein, by the assay type; conditions: other: BTMD-SKI-1 medium, times giving 5–30% substrate hydrolysis; averages of duplicate assays; pH 6.5; 37.0 °C
[6] = substrate: CC(C)C[C@H](NC(=O)[C@H](C)NC(=O)[C@H](CCCNC(=N)N)NC(=O)[C@H](CC(C)C)NC(=O)[C@H](CC(C)C)NC(=O)[C@H](CCCNC(=N)N)NC(=O)[C@H](CCCNC(=N)N)NC(=O)[C@H](CO)NC(=O)[C@H](CO)NC(=O)[C@H](Cc1c[nH]cn1)NC(=O)[C@H](CCCNC(=N)N)NC(=O)CNC(=O)[C@@H](NC(=O)[C@H](C)NC(=O)[C@H](Cc1c[nH]cn1)NC(=O)[C@@H](N)Cc1c[nH]c2ccccc12)[C@@H](C)O)C(=O)N[C@@H](CCC(=O)O)C(N)=O; test: purified protein, by the assay type; conditions: other: BTMD-SKI-1 medium, times giving 5–30% substrate hydrolysis; averages of duplicate assays; pH 6.5; 37.0 °C

PQRKVFRSLKYAESD [IX]
cleavage by the recombinant SKI-1 (SKI-1 [1]): efficiently cleaved

RGLT-MCA
cleavage of fluorogenic MCA peptides lacking P′ residues (SKI-1 [2]): does not cleave

RSVL-MCA
cleavage of fluorogenic MCA peptides lacking P′ residues (SKI-1 [2]): does not cleave

c1cnc2c(c1)ccc1cccnc12 [O-Phenanthroline, o-phenanthroline]
inhibition of the processing of proBDNF by SKI-1 (SKI-1 [3]; at 1 mM): 25% | inhibition of the processing of proBDNF by SKI-1 (SKI-1 [3]; overnight 37° C., pH 6.0, PMSF 0.5 mM + pAPMSF 50 μM, o-phenanthroline 5 mM, EDTA 10 mM): effectively inhibit

Ser-Gly-Ser-Gly-Arg-Ser-Val-Leu↓Ser-Phe-Glu-Ser [(x)]
cleavage by the recombinant SKI-1 (SKI-1 [1]): efficiently cleaved

Ser-Ser-Arg-Arg-Leu-Leu↓Arg-Ala-Ile-Glu [(iv)]
cleavage by the recombinant SKI-1 (SKI-1 [1]): efficiently cleaved

RGLTT-MCA
cleavage of fluorogenic MCA peptides lacking P′ residues (SKI-1 [2]): does not cleave

B1: ˜14 kDa peptide: ˜14 kDa N-terminal fragment of the SKI-1 prosegment, major secreted form (protein)
chain: GKKHLGDRLEKKSFEKAPCPGCSHLTLKVEFSSTVVEYEYIVAFNGYFTAKARNSFISSALKSSEVDNWRIIPRNNPSSDYPSDFEVIQIKEKQKAGLLTLEDHPNIKRVTPQRKVFRSL
inhibitory activity of the RP-HPLC-fractionated native prosegment (BTMD-hSKI-1): not inhibitory

B2: BTMD-hSKI-1 (Homo sapiens) (protein)
chain: RAIPRQVAQTLQADVLWQMGYTGANVRVAVFDTGLSEKHPHFKNVKERTNWTNERTLDDGLGHGTFVAGVIASMRECQGFAPDAELHIFRVFTNNQVSYTSWFLDAFNYAILKKIDVLNLSIGGPDFMDHPFVDKVWELTANNVIMVSAIGNDGPLYGTLNNPADQMDVIGVGGIDFEDNIARFSSRGMTTWELPGGYGRMKPDIVTYGAGVRGSGVKGGCRALSGTSVASPVVAGAVTLLVSTVQKRELVNPASMKQALIASARRLPGVNMFEQGHGKLDLLRAYQILNSYKPQASLSPSYIDLTECPYMWPYCSQPIYYGGMPTVVNVTILNGMGVTGRIVDKPDWQPYLPQNGDNIEVAFSYSSVLWPWSGYLAISISVTKKAASWEGIAQGHVMITVASPAETESKNGAEQTSTVKLPIKVKIIPTPPRSKRVLWDQYHNLRYPPGYFPRDNLRMKNDPLDWNGDHIHTNFRDMYQHLRSMGYFVEVLGAPFTCFDASQYGTLLMVDSEEEYFPEEIAKLRRDVDNGLSLVIFSDWYNTSVMRKVKFYDENTRQWWMPDTGGANIPALNELLSVWNMGFSDGLYEGEFTLANHDMYYASGCSIAKFPEDGVVITQTFKDQGLEVLKQETAVVENVPILGLYQIPAEGGGRIVLYGDSNCLDDSHRQKDCFWLLDALLQYTSYGVTPPSLSHSGNRQRPPSGAGSVTPERMEGNHLHRYSKVLEAHLGDPKPRPLPACPRLSWAKPQPLNETAPSNLWKHQKLLSIDLDKVVLPNFRSNRPQVRPLSPGESGAWDIPGGIMPGRYNQE
Km [4]: 124 nM*1000 | Vmax [4]: 8.33e-06 µmol/min | Km [5]: 109 nM*1000 | Vmax [5]: 1.83e-05 µmol/min | Km [6]: 17 nM*1000 | Vmax [6]: 6.67e-06 µmol/min
